≈ marks a conversion by molar mass, not a printed value. Where only a bound is given, the exact number is not on record here.

A short description of series [1]: Solubility of the compound. The format is physicochemical.
The nature of series [2]: Half life in rat liver microsomes. The format is ADME, Microsome. For orientation: Microsomes from liver hold many membrane-bound enzymes, among them those of drug oxidation.
The subject of series [3] is HCT-116. Kind of series: Antiproliferative activity against human HCT116 cells. It is filed as functional, cell-based.
Series [4] has as its target Heat shock protein HSP90 (Homo sapiens, UniProt P07900+P08238). Kind of series: Inhibition of HSP90 in human HCT-116 cells expressing V-Src-firefly luciferase fusion protein after 3 to 6 hrs. The format is cell-based.
A short description of series [5]: Inhibition of HSP90 by fluorescence polarization assay. Background: Polarisation of emitted light reports the rotation of a fluorescent probe.
Series [6] relates to NCI-H1975. Kind of series: Antiproliferative activity against human NCI-H1975 cells.
Series [7] deals with T98G. Kind of series: Antiproliferative activity against human T98G cells.
The test system of series [8] is BT-474. Kind of series: Antiproliferative activity against human BT474 cells.
The subject of series [9] is DU-145. Kind of series: Antiproliferative activity against human DU145 cells.
Series [10] is described as follows: Antiproliferative activity against human KB 8.5 cells.
Series [11] relates to KB. Kind of series: Antiproliferative activity against human KB cells.
Series [12] in a line: Drug level in tumor of human MDA-MB-361 xenograft in vivo model at 50 mg/kg, po measured at 6 hrs post dose. It is filed as ADME, organism-based, Neoplasm. Further details: dose 50 mg/kg, route oral. The conditions noted are these: read-out: Drug uptake. (In general: A xenograft is tissue or cells of one species grown in another, often human tumour cells in immunodeficient mice.)

Series [13] can be described thus: Plasma concentration human MDA-MB-361 xenograft in vivo model at 50 mg/kg, po measured at 6 hrs post dose. On the set-up: dose 50 mg/kg, route oral. The format is ADME, organism-based.
In series [14] the test system is MDA-MB-361. Kind of series: Antiproliferative activity against human MDA-MB-361 cells.
Series [15] can be described thus: Antiproliferative activity against human U87MG cells. The conditions noted are these: u-87mg atcc.
Series [16] in a line: Antiproliferative activity against human WM266.4 cells. The conditions noted are these: wm 266-4.
Series [17] relates to A549. Kind of series: Antiproliferative activity against human A549 cells.
The nature of series [18]: Drug level in tumor of human MDA-MB-361 xenograft in vivo model at 50 mg/kg, po measured at 24 hrs post dose. It is filed as ADME, organism-based, Neoplasm. On the set-up: dose 50 mg/kg, route oral. The conditions noted are these: read-out: Drug uptake.
The subject of series [19] is A-375. Kind of series: Antiproliferative activity against human A375 cells.
A short description of series [20]: Antiproliferative activity against P-gp overexpressing human KBV1 cells. The conditions noted are these: kb-v1.
The nature of series [21]: Plasma concentration in human MDA-MB-361 xenograft in vivo model at 50 mg/kg, po measured at 24 hrs post dose. It is filed as ADME, organism-based. On the set-up: dose 50 mg/kg, route oral.

For `Cc1c2c(n3c1CCCNC[C@H](C)Nc1cc-3ccc1C(N)=O)CC(C)(C)CC2=O`, the solubility in [1] was over 100 µg/mL.
For the compound `Cc1c2c(n3c1CCCN(C)C(=O)[C@H](C)Nc1cc-3ccc1C(N)=O)CC(C)(C)CC2=O`, in series [1], the solubility is 34 µg/mL (≈ 77.9 µM). The compound also had a half-life in [2] of over 30 min. Besides, the midpoint of the response in series [3], the EC50, lay at 80 nM. The compound also showed an IC50 in [4] of 60 nM.
With `CC(=O)N1CCc2c(C)c3c(n2-c2ccc(C(N)=O)c(c2)N[C@@H](C)CC1)CC(C)(C)CC3=O`, the IC50 in series [5] is 111 nM; in series [4], 108 nM.
With `Cc1c2c(n3c1CCCN[C@H](C)CNc1cc-3ccc1C(N)=O)CC(C)(C)CC2=O`, the solubility in series [1] is over 100 µg/mL. The IC50 is 91 nM in series [5] and 47 nM in series [4]. Besides, the half-life in [2] was over 30 min. The compound also displayed an EC50 in series [3] of 43 nM.
As to `Cc1c2c(n3c1CCN(C(=O)CN)CC[C@H](C)Nc1cc-3ccc1C(N)=O)CC(C)(C)CC2=O`, the IC50 in series [5] turned out to be 90 nM; in series [4], 917 nM. This compound registered a concentration for a half-maximal effect (EC50) in series [3] of 1010 nM.
As for `Cc1c2c(n3c1CCN(C(=O)CCN)CC[C@H](C)Nc1cc-3ccc1C(N)=O)CC(C)(C)CC2=O`, the solubility in series [1] is over 100 µg/mL. Also, the concentration for half-maximal inhibition (IC50) in series [5] stood at 200 nM; in series [4], 6183 nM. In series [2], this compound displayed a half-life of over 30 min. In series [3], this compound had an EC50 of 4890 nM.
The compound `Cc1c2c(n3c1CCN(C(=O)[C@@H](C)N)CC[C@H](C)Nc1cc-3ccc1C(N)=O)CC(C)(C)CC2=O` showed a solubility in series [1] of over 100 µg/mL. Besides, inhibition in [5] was half-maximal at 119 nM (IC50).
In series [1], `Cc1c2c(n3c1CCN(C(=O)[C@H](C)N)CC[C@H](C)Nc1cc-3ccc1C(N)=O)CC(C)(C)CC2=O` yielded a solubility of over 100 µg/mL.
In the case of `CC(=O)NCC(=O)N1CCc2c(C)c3c(n2-c2ccc(C(N)=O)c(c2)N[C@@H](C)CC1)CC(C)(C)CC3=O`, the concentration in solution in series [1] (solubility) came to 5 µg/mL (≈ 9.85 µM). In addition, the IC50 in series [5] worked out at 140 nM; in series [4], 674 nM. For the same compound, the half-life in series [2] is over 30 min. In [3], this compound came in with an EC50 of 1550 nM.
The corresponding values for `Cc1c2c(n3c1CCN(C(=O)CN(C)C)CC[C@H](C)Nc1cc-3ccc1C(N)=O)CC(C)(C)CC2=O` are over 100 µg/mL, 140 nM, 109 nM, 3 min and 168 nM.
The like results for `CC(=O)N1CCCc2c(C)c3c(n2-c2ccc(C(N)=O)c(c2)N[C@@H](C)C1)CC(C)(C)CC3=O` were, in that order, 69 µg/mL (≈ 153 µM), 219 nM, 111 nM, 11 min and 194 nM.
The corresponding values for `CC(=O)N1CCCc2c(C)c3c(n2-c2ccc(C(N)=O)c(c2)NC[C@H]1C)CC(C)(C)CC3=O` are over 100 µg/mL, 953 nM, 1159 nM, 12 min and 1900 nM.
In series [1], `Cc1c2c(n3c1CCCN(C(=O)CN(C)C)[C@H](C)CNc1cc-3ccc1C(N)=O)CC(C)(C)CC2=O` registered a solubility of over 100 µg/mL. For the same compound, the IC50 in series [5] and in series [4] was over 5000 nM each time. The half-life in series [2] is over 30 min. The same compound returned an EC50 in series [3] of 3260 nM.
As for `Cc1c2c(n3c1CCCN(C(=O)[C@@H](C)N)[C@H](C)CNc1cc-3ccc1C(N)=O)CC(C)(C)CC2=O`, the solubility in series [1] is over 100 µg/mL. Further, the IC50 is 555 nM in [5] and over 5000 nM in series [4]. In [2], this compound registered a half-life of over 30 min. Further, the EC50 in series [3] was over 5000 nM.
`Cc1c2c(n3c1CC(=O)NCCCNc1cc-3ccc1C(N)=O)CC(C)(C)CC2=O` registered a concentration for half-maximal inhibition (IC50) in [5] of 6830 nM.
Take `Cc1c2c(n3c1CC(=O)NCC[C@H](C)Nc1cc-3ccc1C(N)=O)CC(C)(C)CC2=O`: in series [1], the solubility is over 100 µg/mL. In addition, the IC50 in [5] was 214 nM; in series [4], 522 nM. Further, the half-life in [2] was over 30 min. Also, a half-maximal effect in [3] (EC50) was put at 815 nM.
`Cc1c2c(n3c1CC(=O)N(C)CC[C@H](C)Nc1cc-3ccc1C(N)=O)CC(C)(C)CC2=O` gave a solubility in [1] of over 100 µg/mL. In addition, the values for the IC50 in series [5] and in series [4] were 156 nM and 160 nM, respectively. This compound had a half-life in [2] of over 30 min. In addition, in series [3], it took 247 nM to reach a half-maximal effect (EC50).
The like results for `Cc1c2c(n3c1CC(=O)N(C(C)C)CC[C@H](C)Nc1cc-3ccc1C(N)=O)CC(C)(C)CC2=O` were, in that order, over 100 µg/mL, 608 nM, 278 nM, 12 min and 865 nM.
Consider `COCCN1CC[C@H](C)Nc2cc(ccc2C(N)=O)-n2c(c(C)c3c2CC(C)(C)CC3=O)CC1=O`, for which the solubility in [1] was over 100 µg/mL. Moreover, the 50% inhibitory concentration (IC50) in series [5] stood at 222 nM; in [4], 108 nM. In series [2], this compound had a half-life of over 30 min. In [3], this compound had an EC50 of 359 nM.
The corresponding values for `Cc1c2c(n3c1CC(=O)N(CCN(C)C)CC[C@H](C)Nc1cc-3ccc1C(N)=O)CC(C)(C)CC2=O` are over 100 µg/mL, 191 nM, 249 nM, over 30 min and 330 nM.
The corresponding values for `CC(=O)NCCN1CC[C@H](C)Nc2cc(ccc2C(N)=O)-n2c(c(C)c3c2CC(C)(C)CC3=O)CC1=O` are over 100 µg/mL, 407 nM, over 5000 nM, over 30 min and over 5000 nM.
`Cc1c2c(n3c1CCCNC(=O)[C@H](C)Nc1cc-3ccc1C(N)=O)CC(C)(C)CC2=O`: the IC50 came out at 47 nM in series [6]; 42 nM in [7]; 82 nM in series [5]; 23 nM in [8]; 45 nM in [9]; 49 nM in [10]. Besides, the IC50 in [11] was determined as 22 nM; in [14] it was 111 nM; in [15], 80 nM; in series [16], 92 nM; in series [17], 23 nM; in series [19] it was 23 nM. The IC50 was over 1000 nM in series [20] and 79 nM in series [4]. The compound also showed a solubility in series [1] of over 100 µg/mL. The half-life in series [2] was over 30 min. Also, the values for the concentration at 6 h in series [12] and in series [13] were 2130 ng/g and 146 ng/mL, respectively. Also, the concentration at 24 h in series [18] amounted to 1270 ng/g; in [21], 8 ng/mL.
Turning to `Cc1c2c(n3c1CCCNC(=O)[C@@H](C)Nc1cc-3ccc1C(N)=O)CC(C)(C)CC2=O`, the IC50 in series [5] stood at 268 nM; in [4] it was 123 nM. A half-maximal effect in series [3] (EC50) was put at 175 nM.
For the compound `Cc1c2c(n3c1CCCN(CCN)C(=O)[C@H](C)Nc1cc-3ccc1C(N)=O)CC(C)(C)CC2=O`, the solubility in [1] is over 100 µg/mL. Besides, the IC50 in [5] was 1180 nM; in [4], over 20000 nM. In series [3], this compound returned an EC50 of over 20000 nM.
As to `CC(=O)NCCN1CCCc2c(C)c3c(n2-c2ccc(C(N)=O)c(c2)N[C@@H](C)C1=O)CC(C)(C)CC3=O`, the solubility in series [1] is over 100 µg/mL. Also, the results for the IC50 in [5] and in series [4] were 240 nM and 15771 nM, respectively. In series [2], this compound gave a half-life of over 30 min. The compound further showed an EC50 in series [3] of 17900 nM.
With `Cc1c2c(n3c1CCCNC(=O)C[C@H](C)Nc1cc-3ccc1C(N)=O)CC(C)(C)CC2=O`, the IC50 in [5] came out at 337 nM; in series [4] it was 1842 nM. The same compound came in with an EC50 in [3] of 3330 nM.

Broadly, the solubility is the dissolved amount per volume that the medium holds. High values mean a readily soluble substance, low ones a poorly soluble substance. As usually defined, the half-life is the time in which the quantity being followed falls by half. The term EC50 denotes the concentration needed to bring the measured effect to its halfway point. Read a low EC50 as an effect from little substance. As usually defined, the IC50 is the concentration that gives 50% inhibition.
